# System: S6 ribosomal protein
# Experiment: S6 ribosomal protein phosphorylation (pS6) by intracellular staining/immunoblot
# Type: cell-based, mouse
# Details: 18 h activated cells; rapamycin 25 nM, Ly294002 10 g/ml as printed; within one hour
# Experimental: Mouse strains, cell sorting and culture Animal work was carried out according the Animals (Scientific Procedures) Act, UK. Lymph node (LN) cells were stained, analysed and sorted by flow cytometry as described (Cobb et al 2005 J. Exp. Med. 201: 1367-1373). Intracellular staining for Foxp3 protein was done as advised by the manufacturers (eBiosciences.com). The phosphorylation syatus of S6 ribosomal protein was determined using anti pS6 Ser235/236 (Cellsignaling cat.no. 2211, http://www.cellsignal.com) using the eBioscience Foxp3 staining kit and anti rabbit IgG-FITC or IgG-Cy5 (Jackson Immunoresearch). […] CD4 T cell CFSE profiles were recorded between 48 and 72 hours later.
# To monitor the activity of the PI3K/mTOR axis in response to TCR signaling, TCR signal withdrawal and treatment with rapamycin and Ly294002, we analysed the level of phosphorylated S6 ribosomal protein (pS6), the target of p70 S6 kinase, which is directly regulated by mTOR. […]
# Mice, Cell Sorting and Culture. […] Lymph node (LN) cells or thymocytes from wild type were stained, analysed and sorted by flow cytometry as described (Thompson et al., 2007 Immunity VoI 26 pp 335-344) from wild type (C57BL/6, BALB/c or C57BL/6×129) mice or from Rag1 deficient H2^b AND TCR transgenic mice. […] CD4 T cell CFSE profiles were recorded between 48 and 72 hours later.
substance,measurement,value
TGFβ,S6 phosphorylation (pS6),reduced pS6

# Reference: patent US9314485B2, “Use of PI3K M-TOR and AKT inhibitors to induce FOXP3 expression and generate regulatory T cells” (Medical Research Council, priority 2006, dated 2016)
